In US8633237B2, “Indane derivatives” (Merck Sharp & Dohme B.V., priority 2009, dated 2014):

Target: T1, AMPA (GluR1) receptor (Homo sapiens, UniProt P42261)
T1 construct: expressed in transfected cells; host or cells: HEK cells (HEK.GluR1(i)), kept under hygromycin selection
Experiment: Ca2+ influx fluorescence assay (FLEXstation, Fluo-3) in HEK.GluR1(i) cells
Type: cell-based
Details: glutamate +/- test compound, read-out: EC50, positive modulation of the AMPA receptor
Excerpt: The compounds in this invention may be tested using a biological assay which measures Ca^2+ influx mediated through positive modulation of the AMPA (GluR1) receptor using standard techniques in the art such as, but not limited to, a FLEXstation (manufactured by Molecular Devices, Sunnyvale, Calif.). An optical readout using fluorescent probes is employed to measure ion channel dependent changes in intracellular ion concentration or membrane potential. The assay utilises the Ca^2+ conductance of functional homomeric GluR1(i) AMPA receptors to generate glutamate-dependent Ca^2+ responses. Influx of Ca^2+ through the ion channel is measured indirectly through an increase in intracellular Ca^2+ levels using the calcium sensitive dye such as, but not limited to, Fluo-3 (Molecular Devices, Sunnyvale, Calif.) in FLEXstation. A positive AMPA receptor modulator, in the presence of glutamate, will result in an influx of Ca^2+ through the ion channel which can be measured indirectly through an increase in intracellular Ca2+ levels using the calcium sensitive dye Fluo-3 in FLEXstation.
HEK.GluR1(i) cells were maintained in DMEM supplemented with 10% fetaclone II, 1% non-essential amino acids and 150 μg/mL hygromycin, at 37° C./5% CO2. […]

T1 sequence (P42261 19-906 isoform P42261-2 limits assumed, species assumed): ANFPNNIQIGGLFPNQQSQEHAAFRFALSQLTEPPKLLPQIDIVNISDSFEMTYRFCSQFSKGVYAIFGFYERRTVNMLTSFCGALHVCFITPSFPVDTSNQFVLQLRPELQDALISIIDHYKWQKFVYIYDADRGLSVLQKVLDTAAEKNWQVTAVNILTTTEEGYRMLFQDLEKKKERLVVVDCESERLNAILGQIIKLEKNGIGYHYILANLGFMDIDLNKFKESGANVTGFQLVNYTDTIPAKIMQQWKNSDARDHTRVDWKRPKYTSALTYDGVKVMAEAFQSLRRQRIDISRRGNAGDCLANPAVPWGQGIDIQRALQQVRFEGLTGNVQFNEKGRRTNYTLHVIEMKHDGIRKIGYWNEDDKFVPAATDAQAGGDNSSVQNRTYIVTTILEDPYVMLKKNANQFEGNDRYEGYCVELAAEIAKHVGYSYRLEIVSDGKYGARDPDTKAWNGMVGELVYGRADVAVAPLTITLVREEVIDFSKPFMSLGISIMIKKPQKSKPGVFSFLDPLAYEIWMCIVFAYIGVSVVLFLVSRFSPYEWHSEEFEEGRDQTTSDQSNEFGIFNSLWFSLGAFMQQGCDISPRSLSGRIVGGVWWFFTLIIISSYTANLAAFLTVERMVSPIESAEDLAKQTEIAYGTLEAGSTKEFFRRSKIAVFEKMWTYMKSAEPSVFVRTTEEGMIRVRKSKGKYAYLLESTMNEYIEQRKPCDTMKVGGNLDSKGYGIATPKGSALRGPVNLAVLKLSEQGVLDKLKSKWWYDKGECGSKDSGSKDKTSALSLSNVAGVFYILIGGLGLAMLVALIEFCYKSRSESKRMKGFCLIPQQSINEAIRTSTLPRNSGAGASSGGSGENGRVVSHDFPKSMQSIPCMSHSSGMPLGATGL

EC50: 2300 nM
SMILES: CC(C)S(=O)(=O)N[C@H]1Cc2ccc(Oc3cccc(C(F)(F)F)c3)cc2C1 [Example 9, (S)-N-(5-(3-(trifluoromethyl)phenoxy)-2,3-dihydro-1H-inden-2-yl)propane-2-sulfonamide]
